Source: PubChem BioAssay AID330 (DTP/NCI, 2004)
Several values for one entry are separate records, joined by “and”; a condition that tells them apart may be missing. Equal values may be shown once. Inconclusive results and toxic doses are left out. The calls were made as follows: active = survival T/C of 150% or more; inactive = T/C below 125% in these data.

Test system: P388 leukemia ip, CD2F1 mice, survival T/C
Experiment: NCI In Vivo Anticancer Drug Screen. Data for tumor model P388 Leukemia (intraperitoneal) in CD2F1 (CDF1) mice
Settings: endpoint: median survival time, higher = longer survival
In short: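 Mice carrying the transplanted tumor received test compound or vehicle. Survival was recorded in each group, and the value is the treated-group measurement divided by that of the vehicle-treated control group.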

[1] = dose: 50.0 mg/kg/injection, schedule: Q01DX005 (ip), vehicle: saline with Tween-80
[2] = dose: 100.0 mg/kg/injection, schedule: Q01DX005 (ip), vehicle: saline with Tween-80
[3] = dose: 200.0 mg/kg/injection, schedule: Q01DX005 (ip), vehicle: saline with Tween-80
[4] = dose: 60.0 mg/kg/injection, schedule: Q01DX005 (ip), vehicle: Klucel (hydroxypropylcellulose) (HPC)
[5] = dose: 120.0 mg/kg/injection, schedule: Q01DX005 (ip), vehicle: Klucel (hydroxypropylcellulose) (HPC)
[6] = dose: 240.0 mg/kg/injection, schedule: Q01DX005 (ip), vehicle: Klucel (hydroxypropylcellulose) (HPC)
[7] = dose: 50.0 mg/kg/injection, schedule: Q01DX005 (ip), vehicle: saline
[8] = dose: 100.0 mg/kg/injection, schedule: Q01DX005 (ip), vehicle: saline
[9] = dose: 50.0 mg/kg/injection, schedule: Q01DX005 (ip), vehicle: Klucel (hydroxypropylcellulose) (HPC)
[10] = dose: 100.0 mg/kg/injection, schedule: Q01DX005 (ip), vehicle: Klucel (hydroxypropylcellulose) (HPC)
[11] = dose: 60.0 mg/kg/injection, schedule: Q01DX005 (ip), vehicle: saline with Tween-80
[12] = dose: 120.0 mg/kg/injection, schedule: Q01DX005 (ip), vehicle: saline with Tween-80
[13] = dose: 240.0 mg/kg/injection, schedule: Q01DX005 (ip), vehicle: saline with Tween-80
[14] = dose: 100.0 mg/kg/injection, schedule: Q04DX002 (ip), vehicle: saline
[15] = dose: 200.0 mg/kg/injection, schedule: Q04DX002 (ip), vehicle: saline

Measured: T/C

COc1ccc(-n2c(N)c(C#N)c3c(c2=S)CCC3)cc1
inactive: dose: 50.0 mg/kg/injection, schedule: Q01DX005 (ip), vehicle: Klucel + Tween-80 106 % of control | dose: 100.0 mg/kg/injection, schedule: Q01DX005 (ip), vehicle: Klucel + Tween-80 99 % of control | dose: 200.0 mg/kg/injection, schedule: Q01DX005 (ip), vehicle: Klucel + Tween-80 92 % of control

CCOc1cc2c(cc1C(C)c1ccc(OC(C)C)cc1)OCO2 (configuration not stated)
inactive: dose: 25.0 mg/kg/injection, schedule: Q01DX005 (ip), vehicle: saline with Tween-80 108 % of control | [1] 106 % of control | [2] 103 % of control | [3] 103 % of control

COc1oc(C2C/C(=C/C(C)=C/C(C)=C/C(C)=C/c3ccc([N+](=O)[O-])cc3)CO2)c(C)c(=O)c1C (configuration not stated)
inactive: dose: 0.25 mg/kg/injection, schedule: Q01DX005 (ip), vehicle: saline 116 % of control | dose: 0.5 mg/kg/injection, schedule: Q01DX005 (ip), vehicle: saline 107 % of control | dose: 1.0 mg/kg/injection, schedule: Q01DX005 (ip), vehicle: saline 113 % of control | dose: 2.0 mg/kg/injection, schedule: Q01DX005 (ip), vehicle: saline 121 % of control

COc1ccc(C(=O)N2N=C(C)C(C)(C)C2(C)O)cc1 (configuration not stated)
inactive: [4] 104 % of control | [5] 109 % of control | [6] 104 % of control

O=[N+]([O-])c1ncccc1NCCN1CCCC1
inactive: dose: 12.5 mg/kg/injection, schedule: Q01DX009 (ip), vehicle: saline 104 % of control | dose: 25.0 mg/kg/injection, schedule: Q01DX009 (ip), vehicle: saline 100 % of control | dose: 50.0 mg/kg/injection, schedule: Q01DX009 (ip), vehicle: saline 106 % of control and 108 % of control

NC(=Nc1ccccc1)NNC=O
inactive: [7] 102 % of control | [8] 104 % of control | dose: 200.0 mg/kg/injection, schedule: Q01DX005 (ip), vehicle: saline 100 % of control

CCOC(=O)CC(C#N)(C#N)CC(=O)OCC
inactive: [1] 101 % of control | [2] 107 % of control | [3] 106 % of control

O=C(/C=C/c1ccc(OCc2ccccc2)cc1)c1ccccc1Cl
inactive: dose: 50.0 mg/kg/injection, schedule: Q01DX009 (ip), vehicle: saline with Tween-80 110 % of control and 95 % of control | dose: 100.0 mg/kg/injection, schedule: Q01DX009 (ip), vehicle: saline with Tween-80 110 % of control and 91 % of control | dose: 200.0 mg/kg/injection, schedule: Q01DX009 (ip), vehicle: saline with Tween-80 100 % of control | dose: 400.0 mg/kg/injection, schedule: Q01DX009 (ip), vehicle: saline with Tween-80 100 % of control

Cn1cnc([N+](=O)[O-])c1[Se]c1ncnc2c1c(C#N)cn2C1OC(CO)C(O)C1O (configuration not stated)
inactive: dose: 12.5 mg/kg/injection, schedule: Q04DX003 (ip), vehicle: saline 103 % of control | dose: 25.0 mg/kg/injection, schedule: Q04DX003 (ip), vehicle: saline 116 % of control | dose: 50.0 mg/kg/injection, schedule: Q04DX003 (ip), vehicle: saline 116 % of control

O=C(c1ccccc1)[C@@]12COc3ccccc3[C@@H]1ON=C2c1ccccc1
inactive: [9] 89 % of control | [10] 88 % of control | dose: 200.0 mg/kg/injection, schedule: Q01DX005 (ip), vehicle: Klucel (hydroxypropylcellulose) (HPC) 91 % of control

Cc1ccc(-c2nc(N)[nH]c2-c2ccc(C)cc2)cc1
inactive: dose: 5.0 mg/kg/injection, schedule: Q04DX002 (ip), vehicle: saline with Tween-80 104 % of control | dose: 10.0 mg/kg/injection, schedule: Q04DX002 (ip), vehicle: saline with Tween-80 100 % of control | dose: 20.0 mg/kg/injection, schedule: Q04DX002 (ip), vehicle: saline with Tween-80 99 % of control

C/C(=N\NC(N)=S)c1ccccc1
inactive: dose: 3.12 mg/kg/injection, schedule: Q01DX009 (ip), vehicle: Klucel (hydroxypropylcellulose) (HPC) 106 % of control | dose: 6.25 mg/kg/injection, schedule: Q01DX009 (ip), vehicle: Klucel (hydroxypropylcellulose) (HPC) 111 % of control | dose: 12.5 mg/kg/injection, schedule: Q01DX009 (ip), vehicle: Klucel (hydroxypropylcellulose) (HPC) 114 % of control

S=C(CC(=S)N1CCOCC1)N1CCOCC1
inactive: [11] 103 % of control | [12] 89 % of control | [13] 97 % of control

Cc1ccccc1C(=Nc1ccccc1)Oc1ccccc1[N+](=O)[O-]
inactive: dose: 100.0 mg/kg/injection, schedule: Q04DX003 (ip), vehicle: saline 100 % of control | dose: 200.0 mg/kg/injection, schedule: Q04DX003 (ip), vehicle: saline 100 % of control | dose: 400.0 mg/kg/injection, schedule: Q04DX003 (ip), vehicle: saline 100 % of control

CCN(CC)c1nc(NNC(=S)NC)nc(N(CC)CC)n1
inactive: dose: 100.0 mg/kg/injection, schedule: Q04DX002 (ip), vehicle: saline with Tween-80 100 % of control | dose: 200.0 mg/kg/injection, schedule: Q04DX002 (ip), vehicle: saline with Tween-80 98 % of control | dose: 400.0 mg/kg/injection, schedule: Q04DX002 (ip), vehicle: saline with Tween-80 100 % of control

CC(C)C(NC(=O)C(CCCCN)N(C(=O)OCc1ccccc1)C(=O)OCc1ccccc1)C(=O)O (configuration not stated)
inactive: [1] 100 % of control | [2] 93 % of control | [3] 92 % of control

CCOC(=O)C(CC)C(=O)c1ccccc1 (configuration not stated)
inactive: dose: 75.0 mg/kg/injection, schedule: Q01DX009 (ip), vehicle: saline with Tween-80 105 % of control | dose: 150.0 mg/kg/injection, schedule: Q01DX009 (ip), vehicle: saline with Tween-80 109 % of control | dose: 300.0 mg/kg/injection, schedule: Q01DX009 (ip), vehicle: saline with Tween-80 112 % of control

COCN(C)N=Nc1ccc(C(=O)OC)cc1
inactive: [4] 107 % of control | [5] 101 % of control | [6] 87 % of control

O=S(=O)(O)O
inactive: dose: 30.0 mg/kg/injection, schedule: Q01DX009 (ip), vehicle: water 108 % of control | dose: 100.0 mg/kg/injection, schedule: Q01DX009 (ip), vehicle: water 86 % of control

Cc1cc(C)c(O)c(CS(=O)(=O)Cc2cc(C)cc(C)c2O)c1
inactive: [14] 101 % of control | [15] 97 % of control | dose: 400.0 mg/kg/injection, schedule: Q04DX002 (ip), vehicle: saline 91 % of control

NC(=S)N=Nc1c(O)n(C2OC(CO)C(O)C(O)C2O)c2ccccc12 (configuration not stated)
inactive: dose: 32.0 mg/kg/injection, schedule: Q01DX002 (ip), vehicle: saline with Tween-80 109 % of control and 112 % of control | dose: 64.0 mg/kg/injection, schedule: Q01DX002 (ip), vehicle: saline with Tween-80 114 % of control and 116 % of control | dose: 128.0 mg/kg/injection, schedule: Q01DX002 (ip), vehicle: saline with Tween-80 98 % of control and 90 % of control

O=Cc1cc2ccc3ccccc3c2[nH]1
inactive: dose: 200.0 mg/kg/injection, schedule: Q01DX001 (ip), vehicle: saline with Tween-80 90 % of control

CN1C2C=C(c3ccc(C(F)(F)F)cc3)CC1CC2 (configuration not stated)
inactive: dose: 25.0 mg/kg/injection, schedule: Q01DX005 (ip), vehicle: Klucel (hydroxypropylcellulose) (HPC) 100 % of control and 107 % of control | [9] 106 % of control | [7] 102 % of control | [10] 98 % of control | [8] 104 % of control

CC1CN2C(=O)C1(c1ccccc1)C(=O)NC2=S (configuration not stated)
inactive: dose: 50.0 mg/kg/injection, schedule: Q01DX009 (ip), vehicle: Klucel (hydroxypropylcellulose) (HPC) 98 % of control | dose: 100.0 mg/kg/injection, schedule: Q01DX009 (ip), vehicle: Klucel (hydroxypropylcellulose) (HPC) 107 % of control | dose: 200.0 mg/kg/injection, schedule: Q01DX009 (ip), vehicle: Klucel (hydroxypropylcellulose) (HPC) 100 % of control

CC(=O)OC1CSC(OC(C)=O)C(OC(C)=O)C1[N+](=O)[O-] (configuration not stated)
inactive: [14] 99 % of control | [15] 115 % of control

COC12C=C(C(C)(C)C)C(CC1)C1C(=O)c3c(OC(=O)OCc4ccc([N+](=O)[O-])cc4)ccc(O)c3C(=O)C12 (configuration not stated)
inactive: dose: 30.0 mg/kg/injection, schedule: Q01DX005 (ip), vehicle: saline with Tween-80 91 % of control | [11] 86 % of control and 94 % of control | [12] 91 % of control and 92 % of control | [13] 100 % of control

CCOc1c(Cl)cc(Cl)cc1C(c1ccccc1S(=O)(=O)O)c1cc(Cl)cc(Cl)c1OCC
inactive: dose: 6.25 mg/kg/injection, schedule: Q01DX009 (ip), vehicle: saline with Tween-80 100 % of control | dose: 12.5 mg/kg/injection, schedule: Q01DX009 (ip), vehicle: saline with Tween-80 91 % of control
